According to patent US9174952B2, “Substituted 3-thiazoloamino-propionic acid derivatives and their use as pharmaceuticals” (SANOFI, priority 2011, dated 2015):

biological target: T1, Recombinant human cathepsin A (Homo sapiens, UniProt P10619); experiment: Cathepsin A inhibitory activity; assay type: biochemical; conditions: activated recombinant human cathepsin A 833 ng/ml, Bodipy FL-labeled bradykinin substrate 2 μM, pH 5.5, room temperature
T1 construct: Recombinant human cathepsin A (residues 29-480, with a C-terminal 10-His tag); 10-His (C); purchased R&D Systems 1049-SE
T1 sequence (P10619 29-326 limits assumed): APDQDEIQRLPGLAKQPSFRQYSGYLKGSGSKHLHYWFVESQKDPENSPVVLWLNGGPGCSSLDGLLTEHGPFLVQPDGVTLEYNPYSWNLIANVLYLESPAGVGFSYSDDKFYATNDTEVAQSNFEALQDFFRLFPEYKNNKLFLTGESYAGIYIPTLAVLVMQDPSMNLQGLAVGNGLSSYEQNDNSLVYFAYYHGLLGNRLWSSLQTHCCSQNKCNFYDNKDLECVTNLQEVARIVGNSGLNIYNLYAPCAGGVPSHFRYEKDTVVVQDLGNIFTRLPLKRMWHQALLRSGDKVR
T1 sequence (P10619 327-480 limits assumed): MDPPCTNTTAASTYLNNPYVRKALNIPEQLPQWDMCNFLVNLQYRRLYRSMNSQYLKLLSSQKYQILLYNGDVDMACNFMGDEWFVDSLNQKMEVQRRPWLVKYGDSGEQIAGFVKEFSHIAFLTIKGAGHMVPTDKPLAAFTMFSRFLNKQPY
Experimental: a) Cathepsin A Inhibitory Activity
Recombinant human cathepsin A (residues 29-480, with a C-terminal 10-His tag; R&D Systems, #1049-SE) was proteolytically activated with recombinant human cathepsin L (R&D Systems, #952-CY). Briefly, cathepsin A was incubated at 10 μg/ml with cathepsin L at 1 μg/ml in activation buffer (25 mM 2-(morpholin-4-yl)-ethanesulfonic acid (MES), pH 6.0, containing 5 mM dithiothreitol (DTT)) for 15 min at 37° C. Cathepsin L activity was then stopped by the addition of the cysteine protease inhibitor E-64 (N-(trans-epoxysuccinyl)-L-leucine-4-guanidinobutylamide; Sigma-Aldrich, # E3132; dissolved in activation buffer/DMSO) to a final concentration of 10 μM.
The activated cathepsin A was diluted in assay buffer (25 mM MES, pH 5.5, containing 5 mM DTT) and mixed with the test compound (dissolved in assay buffer containing (v/v) 3% DMSO) or, in the control experiments, with the vehicle in a multiple assay plate. After incubation for 15 min at room temperature, as substrate then bradykinin carrying an N-terminal ®Bodipy FL (4,4-difluoro-5,7-dimethyl-4-bora-3a,4a-diaza-s-indacene-3-propionyl) label (JPT Peptide Technologies GmbH; dissolved in assay buffer) was added to the mixture. The final concentration of cathepsin A was 833 ng/ml and the final concentration of labeled bradykinin 2 μM. After incubation for 15 min at room temperature the reaction was stopped by the addition of stop buffer (130 mM 2-(4-(2-hydroxy-ethyl)-piperazin-1-yl)-ethanesulfonic acid, pH 7.4, containing (v/v) 0.013% ®Triton X-100, 0.13% Coating Reagent 3 (Caliper Life Sciences), 6.5% DMSO and 20 μM ebelactone B (Sigma, # E0886)).
Uncleaved substrate and product were then separated by a microfluidic capillary electrophoresis on a LabChip® 3000 Drug Discovery System (12-Sipper-Chip; Caliper Life Sciences) and quantified by determination of the respective peak areas. Substrate turnover was calculated by dividing product peak area by the sum of substrate and product peak areas, and the enzyme activity and the inhibitory effect of the test compound thus quantified. From the percentage of inhibition of cathepsin A activity observed with the test compound at several concentrations, the inhibitory concentration IC50, i.e. the concentration which effects 50% inhibition of enzyme activity was, calculated.

SMILES | IC50 [nM]
O=C(N[C@@H](Cc1ccc(Cl)cc1)C(=O)O)c1csc(-c2ccccc2Cl)n1 [Example 81, (S)-3-(4-Chloro-phenyl)-2-{[2-(2-chloro-phenyl)-thiazole-4-carbonyl]-amino}-propionic acid] | > 10000
O=C(O)C[C@H](NC(=O)c1csc(-c2ccccc2Cl)n1)c1ccc(F)cc1 [Example 80, (S)-3-{[2-(2-Chloro-phenyl)-thiazole-4-carbonyl]-amino}-3-(4-fluoro-phenyl)-propionic acid] | 148
O=C(O)CC(Cc1ccccc1)NC(=O)c1csc(-c2ccccc2F)n1 (stereo not drawn) [Example 122, 3-{[2-(2-Fluoro-phenyl)-thiazole-4-carbonyl]-amino}-4-phenyl-butyric acid] | 4420
O=C(O)C[C@H](NC(=O)c1csc(-c2ccc(C(F)(F)F)cc2)n1)c1ccccc1F [Example 37, (S)-3-(2-Fluoro-phenyl)-3-{[2-(4-trifluoromethyl-phenyl)-thiazole-4-carbonyl]-amino}-propionic acid] | 14700
O=C(NCC(C(=O)O)c1ccccc1)c1csc(-c2ccccc2)n1 (stereo not drawn) [Example 115, 2-Phenyl-3-[(2-phenyl-thiazole-4-carbonyl)-amino]-propionic acid] | 4880
O=C(O)C[C@H](NC(=O)c1csc(-c2ccccc2F)n1)c1ccc(Cl)cc1Cl [Example 24, (S)-3-(2,4-Dichloro-phenyl)-3-{[2-(2-fluoro-phenyl)-thiazole-4-carbonyl]-amino}-propionic acid] | 1070
O=C(O)C[C@H](NC(=O)c1nc(-c2ccccc2)cs1)c1cccc(Cl)c1 [Example 65, (S)-3-(3-Chloro-phenyl)-3-[(4-phenyl-thiazole-2-carbonyl)-amino]-propionic acid] | 917
COc1cccc([C@H](CC(=O)O)NC(=O)c2csc(-c3cccc(Cl)c3Cl)n2)c1OC [Example 64, (S)-3-{[2-(2,3-Dichloro-phenyl)-thiazole-4-carbonyl]-amino}-3-(2,3-dimethoxy-phenyl)-propionic acid] | 154
O=C(O)CC(NC(=O)c1csc(-c2ccccc2)n1)c1ccc(-c2ccc(F)cc2)cc1 (stereo not drawn) [Example 2, 3-(4′-Fluoro-biphenyl-4-yl)-3-[(2-phenyl-thiazole-4-carbonyl)-amino]-propionic acid] | > 10000
O=C(O)C[C@H](NC(=O)c1csc(-c2ccccc2Cl)n1)c1ccccc1 [Example 83, (S)-3-{[2-(2-Chloro-phenyl)-thiazole-4-carbonyl]-amino}-3-phenyl-propionic acid] | 186
O=C(O)C[C@H](NC(=O)c1csc(-c2ccccc2)n1)c1ccccc1Cl [Example 27, (S)-3-(2-Chloro-phenyl)-3-[(2-phenyl-thiazole-4-carbonyl)-amino]-propionic acid] | 217
O=C(O)C[C@H](NC(=O)c1csc(-c2ccccc2Cl)n1)c1ccccc1F [Example 76, (S)-3-{[2-(2-Chloro-phenyl)-thiazole-4-carbonyl]-amino}-3-(2-fluoro-phenyl)-propionic acid] | 658
O=C(O)C[C@H](NC(=O)c1csc(-c2ccccc2F)n1)c1ccccc1F [Example 36, (S)-3-(2-Fluoro-phenyl)-3-{[2-(2-fluoro-phenyl)-thiazole-4-carbonyl]-amino}-propionic acid] | 659
Cc1ccccc1[C@H](CC(=O)O)NC(=O)c1csc(-c2ccc(C(F)(F)F)cc2)n1 [Example 112, (S)-3-o-Tolyl-3-{[2-(4-trifluoromethyl-phenyl)-thiazole-4-carbonyl]-amino}-propionic acid] | 1310
O=C(O)C[C@H](NC(=O)c1csc(-c2ccccc2Cl)n1)c1cccc(F)c1 [Example 78, (S)-3-{[2-(2-Chloro-phenyl)-thiazole-4-carbonyl]-amino}-3-(3-fluoro-phenyl)-propionic acid] | 257
COc1cccc([C@H](CC(=O)O)NC(=O)c2csc(-c3ccccc3C)n2)c1OC [Example 17, (S)-3-(2,3-Dimethoxy-phenyl)-3-[(2-o-tolyl-thiazole-4-carbonyl)-amino]-propionic acid] | 242
O=C(O)C[C@H](NC(=O)c1csc(-c2cccc(Cl)c2Cl)n1)c1cccc(Cl)c1 [Example 41, (S)-3-(3-Chloro-phenyl)-3-{[2-(2,3-dichloro-phenyl)-thiazole-4-carbonyl]-amino}-propionic acid] | 583
Cc1ccccc1-c1nc(C(=O)N[C@@H](CC(=O)O)c2ccccc2Cl)cs1 [Example 26, (S)-3-(2-Chloro-phenyl)-3-[(2-o-tolyl-thiazole-4-carbonyl)-amino]-propionic acid] | 149
O=C(O)C[C@H](NC(=O)c1csc(-c2cccc(Cl)c2Cl)n1)c1cccc(Cl)c1Cl [Example 14, (S)-3-(2,3-Dichloro-phenyl)-3-{[2-(2,3-dichloro-phenyl)-thiazole-4-carbonyl]-amino}-propionic acid] | 159
Cc1ccccc1[C@H](CC(=O)O)NC(=O)c1csc(-c2cccc(Cl)c2)n1 [Example 98, (S)-3-{[2-(3-Chloro-phenyl)-thiazole-4-carbonyl]-amino}-3-o-tolyl-propionic acid] | 660
COc1cccc([C@H](CC(=O)O)NC(=O)c2csc(-c3ccc(C(F)(F)F)cc3)n2)c1OC [Example 20, (S)-3-(2,3-Dimethoxy-phenyl)-3-{[2-(4-trifluoromethyl-phenyl)-thiazole-4-carbonyl]-amino}-propionic acid] | 6340
O=C(O)C[C@H](NC(=O)c1nc(-c2ccccc2)cs1)c1ccccc1F [Example 53, (S)-3-(2-Fluoro-phenyl)-3-[(4-phenyl-thiazole-2-carbonyl)-amino]-propionic acid] | 1750
O=C(O)C[C@H](NC(=O)c1csc(-c2ccccc2Cl)n1)c1cccc(Cl)c1 [Example 42, (S)-3-(3-Chloro-phenyl)-3-{[2-(2-chloro-phenyl)-thiazole-4-carbonyl]-amino}-propionic acid] | 238
O=C(O)C[C@H](NC(=O)c1csc(-c2ccc(Cl)cc2)n1)c1ccccc1Cl [Example 32, (S)-3-(2-Chloro-phenyl)-3-{[2-(4-chloro-phenyl)-thiazole-4-carbonyl]-amino}-propionic acid] | 1400
O=C(O)C[C@H](NC(=O)c1csc(-c2ccccc2Cl)n1)c1ccc(Cl)cc1Cl [Example 75, (S)-3-{[2-(2-Chloro-phenyl)-thiazole-4-carbonyl]-amino}-3-(2,4-dichloro-phenyl)-propionic acid] | 288
COc1ccc([C@H](CC(=O)O)NC(=O)c2csc(-c3ccc(C(F)(F)F)cc3)n2)cc1 [Example 60, (S)-3-(4-Methoxy-phenyl)-3-{[2-(4-trifluoromethyl-phenyl)-thiazole-4-carbonyl]-amino}-propionic acid] | 14800
O=C(O)C[C@H](NC(=O)c1csc(-c2ccccc2)n1)c1cccc(Cl)c1Cl [Example 13, (S)-3-(2,3-Dichloro-phenyl)-3-[(2-phenyl-thiazole-4-carbonyl)-amino]-propionic acid] | 176
O=C(O)C[C@H](NC(=O)c1csc(-c2ccc(C(F)(F)F)cc2)n1)c1ccccc1Cl [Example 33, (S)-3-(2-Chloro-phenyl)-3-{[2-(4-trifluoromethyl-phenyl)-thiazole-4-carbonyl]-amino}-propionic acid] | 3110
O=C(O)C[C@H](NC(=O)c1csc(-c2cccc(Cl)c2)n1)c1ccccc1Cl [Example 31, (S)-3-(2-Chloro-phenyl)-3-{[2-(3-chloro-phenyl)-thiazole-4-carbonyl]-amino}-propionic acid] | 703
Cc1ccccc1-c1nc(C(=O)N[C@@H](CC(=O)O)c2ccc(Cl)cc2Cl)cs1 [Example 21, (S)-3-(2,4-Dichloro-phenyl)-3-[(2-o-tolyl-thiazole-4-carbonyl)-amino]-propionic acid] | 886
